{"source": "patent US20240293289A1", "about": "“Multifunctional Dental Adhesives and Uses Thereof” (University of Maryland, Baltimore, priority 2023, published 2024)", "biological_target": "MMP-9 (Homo sapiens, UniProt P14780)", "sequence (P14780 94-707)": "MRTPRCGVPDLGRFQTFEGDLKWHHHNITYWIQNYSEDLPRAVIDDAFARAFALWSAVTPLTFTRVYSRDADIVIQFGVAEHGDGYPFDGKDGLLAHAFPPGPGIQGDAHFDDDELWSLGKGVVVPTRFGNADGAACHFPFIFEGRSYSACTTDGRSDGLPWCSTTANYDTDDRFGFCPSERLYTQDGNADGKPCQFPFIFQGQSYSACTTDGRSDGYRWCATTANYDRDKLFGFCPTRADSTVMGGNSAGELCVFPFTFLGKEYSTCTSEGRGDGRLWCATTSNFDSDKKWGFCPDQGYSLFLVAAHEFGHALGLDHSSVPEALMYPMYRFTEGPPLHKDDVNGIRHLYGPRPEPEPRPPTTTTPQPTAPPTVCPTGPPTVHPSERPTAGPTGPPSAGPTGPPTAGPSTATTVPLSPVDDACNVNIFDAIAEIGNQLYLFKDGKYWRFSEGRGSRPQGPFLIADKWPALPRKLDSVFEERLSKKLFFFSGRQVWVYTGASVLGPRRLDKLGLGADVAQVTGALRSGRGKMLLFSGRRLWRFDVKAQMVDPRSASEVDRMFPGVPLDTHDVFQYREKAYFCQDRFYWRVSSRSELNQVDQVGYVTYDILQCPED", "assay": "SENSOLYTE Generic MMP Assay Kit, MMP inhibition", "type": "biochemical", "protocol": "For the MMPs inhibition assay, SENSOLYTE Generic MMP Assay Kit Colorimetric was used. The MMP thiopeptide substrate solution was diluted to 0.2 mM with the supplied assay buffer in a 1:50 volume ratio. A 96-well plate was used for the assay using four replicates per group. In each well, 40 μL of MMP-9 (20 ng/well), 10 μL of CHX (1 mg/mL) at serial dilutions, and 50 μL of thiopeptide substrate solution were mixed. […] was measured using a plate reader (SpectraMax M5, Molecular Devices, Sunnyvale, CA, USA) at Ex/Em-490 nm/540 nm with a kinetic mode every 5 min for 60 min (20). The substrate control group was set as a background, where its absorbance was subtracted from other wells. The percentage of MMP inhibition was calculated according to equation 5: […]", "data": [{"smiles": "[H]/N=C(\\N/C(=N/[H])NCCCCCCNC(=N)NC(=N)Nc1ccc(Cl)cc1)Nc1ccc(Cl)cc1", "note": "[CHX, Chlorhexidine]", "values": [{"measurement": "inhibition at 1000 µg/mL", "setting": "1 mg/mL CHX", "result": 99.8, "unit": "%"}, {"measurement": "inhibition of MMP-9", "setting": "less than 1 mg/mL of CHX", "result": "substantial inhibition"}]}]}
